Test results as given in US20250271421A1, “KIT FOR QUANTITATIVE ANALYSIS OF C-REACTIVE PROTEIN, METHOD FOR QUANTITATIVE ANALYSIS OF C-REACTIVE PROTEIN, AND APPARATUS FOR PERFORMING THE SAME” (I-sens, Inc., priority 2024, published 2025).

Legend:
[1] = system: immune reaction between CRP and Anti-CRP antibodies; test: Evaluation of antigen-antibody reactivity by hemolytic reagents (second absorbance, 7-Level CRP Serum Samples)
Description: The concentrations of each candidate hemolytic reagent were determined as follows Table 2, taking into account the sample influence, including hematocrit.
Furthermore, each candidate hemolytic reagent was applied to 7-Level CRP Serum Samples, followed by an immune reaction between the hemolyzed samples and latex particles coated with Anti-CRP antibodies. Specifically, latex particles coated with Anti-CRP antibodies supplied by RANDOX were concentrated and stabilized with the addition of a stabilizer. The immune reaction was configured to occur between the hemolyzed samples and the latex particles coated with Anti-CRP antibodies.
After the immune reaction, the absorbance of each sample after the immune reaction (referred to as the second absorbance or second turbidity) was measured. Specifically, the second absorbance of the samples was measured at a wavelength of 750 nm using the A1Care Analyzer by i-SENS, Inc.
As for the control group, the experiment was designed to measure the second absorbance after the immune reaction between the 7-Level CRP Serum Samples without the addition of any hemolytic reagent and the latex particles coated with Anti-CRP antibodies. Additionally, the concentrations of the 7-Level CRP Serum Samples were varied from 0 to 195.8 mg/L, and the second absorbance was measured for each sample.

[2] = system: blood cells in fresh venous whole blood samples (HCT 48%); test: Evaluation of hemolytic effect of hemolytic reagents (first absorbance/turbidity); type: cell-based; settings: for first absorbance: 750 nm, below 0.05 = hemolytic effect; for hemolytic effects on the blood cells in the blood sample: in most concentration ranges
Description: To select hemolytic reagents with a hemolytic effect capable of lysing the blood cells in a blood sample, five candidate hemolytic reagents were selected. Each candidate hemolytic reagent was applied to fresh venous whole blood samples (HCT 48%). The background measurement values (i.e., the first turbidity or first absorbance) of samples treated with each candidate hemolytic reagent were measured. Specifically, the first absorbance of the samples was measured at a wavelength of 750 nm using the A1Care Analyzer by i-SENS, Inc.
The five candidate hemolytic reagents are listed below Table 1. […] A candidate hemolytic reagent was evaluated to have a hemolytic effect on the blood sample if the first turbidity of the sample was below 0.05.

[3] = system: immunoreagent (R2) containing Anti-CRP antibodies (latex particles coated with Anti-CRP antibodies); test: Accelerated stability by stabilizers (2), 50° C., 7 days, 3-Level CRP Serum Samples; type: physicochemical; settings: 100 mM
Description: To select a stabilizer for ensuring the storage stability of the immunoreagent (R2) containing Anti-CRP antibodies, two candidate stabilizers (Trehalose and Sucrose) with confirmed through Experimental Example 4 storage stability effects were prepared. Each candidate stabilizer was added to latex particles coated with Anti-CRP antibodies and dried. The reagent solution and 3-Level CRP Serum Samples (CRP 10 mg/L, 50 mg/L, 150 mg/L) were added to the dried compositions, and the immune reaction between CRP and Anti-CRP antibodies was carried out. After the immune reaction, the absorbance was measured to obtain the baseline measurement value of storage on day 0.
Each candidate stabilizer was added to latex particles coated with Anti-CRP antibodies, and the dried compositions were stored in an oven at 50° C. The reagent solution was stored separately under refrigeration. At 1-day intervals over a period of 7 days, the reagent solution and 3-Level CRP Serum Samples (CRP 10 mg/L, 50 mg/L, 150 mg/L) were added to the dried compositions containing each candidate stabilizer. The immune reaction between CRP and Anti-CRP antibodies was conducted, and the absorbance after the immune reaction was measured to obtain the measurement values for storage days 1, 2, 3, 4, 5, 6, and 7.
Based on the baseline measurement value and the measurement values obtained during the storage period, deviations (Bias) were calculated.
Additionally, for each condition, the experiment was repeated 5 times, and precision (CV) was calculated.
The two candidate stabilizers are listed below Table 5, and stabilizers with deviations (Bias) measured within 20% throughout the storage period were evaluated as effective for ensuring the storage stability of the immunoreagent (R2). Stabilizers with precision (CV) measured within 10% were evaluated as having excellent precision.

[4] = system: immunoreagent (R2) containing Anti-CRP antibodies (latex particles coated with Anti-CRP antibodies); test: Accelerated stability by stabilizers (1), 50° C., 7 days, 1-Level CRP Serum Sample; type: physicochemical; settings: stabilizer concentrations as in Table 4
Description: To select a stabilizer that ensures the storage stability of the immunoreagent (R2) containing Anti-CRP antibodies, five candidate stabilizers were chosen. Each candidate stabilizer was added to latex particles coated with Anti-CRP antibodies and dried. The reagent solution and 1-Level CRP Serum Sample (CRP 60 mg/L) were added to the dried composition to facilitate the immune reaction between CRP and Anti-CRP antibodies. After the immune reaction, the absorbance was measured to obtain the baseline measurement value for storage on day 0. […]
Furthermore, the dried compositions, containing each candidate stabilizer added to latex particles coated with Anti-CRP antibodies, were stored in an oven at 50° C. […] The immune reaction between CRP and Anti-CRP antibodies was carried out, and the absorbance after the immune reaction was measured to obtain the measurement values for storage days 1, 2, 3, 4, 5, 6, and 7.
As for the control group, the experiment was configured to measure the absorbance after the immune reaction between the 1-Level CRP Serum Sample (CRP 60 mg/L) without the addition of any stabilizer and latex particles coated with Anti-CRP antibodies.
Furthermore, deviations (Bias) were calculated based on the baseline measurement value and the measurement values obtained over the storage period. […]

[5] = CRP Serum (50 mg/L, Mid), up to storage day 7
[6] = CRP Serum (150 mg/L, High), up to storage day 7

For `CCCCCCCCCCCCCC(=O)NCCC[N+](C)(C)CCCS(=O)(=O)[O-]` [ASB-14], the “decrease of absorbance corresponding to the CRP concentration compared to the control group” value ([1]; 750 nm, 0.05% ASB-14, CRP serum 0 to 195.8 mg/L) was no less than 50%, the first absorbance ([2]; reagent concentration range 0.01-0.03 (w/v %)) was “greater than 0.05” and the first absorbance ([2]; reagent concentration range 0.04-0.20 (w/v %)) was “less than 0.05”. For the same compound, the “hemolytic effects on the blood cells in the blood sample” value [2] was “exhibited hemolytic effects”.
For `OC[C@H]1O[C@@](CO)(O[C@H]2O[C@H](CO)[C@@H](O)[C@H](O)[C@H]2O)[C@@H](O)[C@@H]1O` [Sucrose], the “deviation (Bias) compared to baseline on day 0” value ([3]; CRP Serum (10 mg/L, Low), up to storage day 7) was no more than 20%, the “deviation (Bias) compared to baseline on day 0” value [3, 5] was no more than 20% and the “deviation (Bias) compared to baseline on day 0” value [3, 6] was no more than 20%. For the same compound, the “dissolution of the dried Anti-CRP antibodies (visually confirmed)” value [4] was “dissolved properly”.
`OC[C@H]1O[C@H](O[C@H]2O[C@H](CO)[C@@H](O)[C@H](O)[C@H]2O)[C@H](O)[C@@H](O)[C@@H]1O` [Trehalose] was tested, and the “deviation (Bias) compared to baseline on day 0” value ([3]; CRP Serum (10 mg/L, Low), storage days 5 and 7) was greater than 20%, the “deviation (Bias) compared to baseline on day 0” value [3, 5] was no more than 20% and the “deviation (Bias) compared to baseline on day 0” value [3, 6] was no more than 20%. The “dissolution of the dried Anti-CRP antibodies (visually confirmed)” value [4] was “dissolved properly”.
For Sodium deoxycholate [SDC], the “effect of the hemolytic reaction on the antigen-antibody reaction between CRP and Anti-CRP antibodies” value ([1]; 0.13% SDC, 0.03% Saponin) was “did not affect the antigen-antibody reaction”, the first absorbance ([2]; reagent concentration range 0.10-0.11 (w/v %)) was “greater than 0.05” and the first absorbance ([2]; reagent concentration range 0.12-0.20 (w/v %)) was “less than 0.05”. For the same compound, the “hemolytic effects on the blood cells in the blood sample” value [2] was “exhibited hemolytic effects”.
